Laboratory results published in US20230212549A1, “COMPOUNDS COMPRISING A […] LIGAND AND USE THEREOF” (priority 2021, published 2023).
Numbered stars: 1 amine (or outer) side, 2 acyl side, 3 side chain; on linkers, the order of the positions; unused ones are H or OH. Bridge positions count the residues as written; N and C are the ends. Square brackets hold non-standard residues; d marks the D form. Peptide text beside a SMILES is read from it. * marks the point of attachment. TBMB(SCH2CH2NH-DOTA) = O=C(O)CN1CCN(CC(=O)O)CCN(CC(=O)NCCSCc2cc(C[*:1])cc(C[*:2])c2)CCN(CC(=O)O)CC1; X13 = O=C(O)CN1CCN(CC(=O)O)CCN(CC(=O)N2CCN(Cc3cc(C[*:1])cc(C[*:2])c3)CC2)CCN(CC(=O)O)CC1; X18 = NCCNCC(CNCCN)C(=O)N[C@@H](CCC(=O)O)C(=O)NCCCOCCOCCOCCCN*; mXylylene = c1cc(C[*:1])cc(C[*:2])c1; Pentanesulfonyl = CCCCCS(=O)(=O)*; Suc = O=C(CCC(=O)[*:2])[*:1]; Nle = CCCC[C@H](N)C(=O)O; Hexanoyl = CCCCCC(=O)*

How the values were obtained:
Human recombinant FAP [1] = molecular target: T1, Human recombinant FAP (Homo sapiens, UniProt Q12884); assay: Surface plasmon resonance (Biacore) assay; assay type: binding
T1 sequence (Q12884 whole entry): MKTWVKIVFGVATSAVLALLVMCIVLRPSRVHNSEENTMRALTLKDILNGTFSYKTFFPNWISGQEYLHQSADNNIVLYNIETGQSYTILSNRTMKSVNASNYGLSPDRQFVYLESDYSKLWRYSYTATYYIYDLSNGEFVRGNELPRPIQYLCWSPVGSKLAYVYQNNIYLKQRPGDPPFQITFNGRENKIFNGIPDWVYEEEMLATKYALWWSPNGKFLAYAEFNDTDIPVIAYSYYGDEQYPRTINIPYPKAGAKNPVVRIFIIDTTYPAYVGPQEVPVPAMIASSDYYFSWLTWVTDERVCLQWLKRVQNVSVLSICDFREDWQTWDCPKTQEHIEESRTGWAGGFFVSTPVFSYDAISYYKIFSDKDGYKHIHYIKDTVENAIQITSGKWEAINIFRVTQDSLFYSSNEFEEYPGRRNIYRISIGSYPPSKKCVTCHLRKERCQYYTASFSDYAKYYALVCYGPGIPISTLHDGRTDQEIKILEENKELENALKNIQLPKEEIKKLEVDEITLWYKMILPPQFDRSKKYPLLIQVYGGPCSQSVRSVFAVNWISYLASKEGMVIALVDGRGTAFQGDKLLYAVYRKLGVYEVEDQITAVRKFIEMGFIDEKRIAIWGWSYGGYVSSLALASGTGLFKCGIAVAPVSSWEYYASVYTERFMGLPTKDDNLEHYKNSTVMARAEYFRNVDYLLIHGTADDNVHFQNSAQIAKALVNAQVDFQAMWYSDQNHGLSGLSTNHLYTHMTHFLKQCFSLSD

[2] = molecular target: T2, FAP-expressing human WI-38 fibroblasts (Homo sapiens, UniProt Q12884); assay: Competitive FACS binding assay
T2 construct: FAP-expressing human WI-38 fibroblasts (ECACC) were cultured in EMEM; host or cells: WI-38 human fibroblasts
T2 sequence (Q12884 whole entry): as above
Method: Cells were analyzed in an Attune NxT flow cytometer. […] […].
Cells were analyzed in an Attune NxT flow cytometer. […]

Human recombinant FAP [3] = molecular target: T1, Human recombinant FAP; assay: FRET-based FAP protease activity assay; assay type: biochemical; set-up: purchased R&D systems 3715-SE
in vivo = conditions: female, athymic nude, mouse, iv
[4] = pIC50 Category (Activity), FRET-peptide substrate, 37° C.
[5] = pIC50 Category (Activity), FRET-based FAP protease activity assay, recombinant human FAP, 37° C.

Kd (Human recombinant FAP [1]) [nM] | IC50 [2] [nM] | IC50 (Human recombinant FAP [3]; [4]) [nM] | Compound | IC50 (Human recombinant FAP [3]; [5]) [nM] | other results
< 10 | < 10 | – | CCCCNC(=O)N[C@H]1CSCc2cc(CSCCNC(=O)CN3CCN(CC(=O)O)CCN(CC(=O)O)CC3)cc(c2)CSCC(C(=O)O)NC(=O)[C@H](Cc2ccccc2)NC(=O)[C@H](CCC(N)=O)NC(=O)[C@H]([C@@H](C)O)NC(=O)[C@@H]2CCCN2C(=O)[C@@H]2CCCN2C1=O (stereo partly drawn) [3BP-5210, nBu-CAyl-[Cys(tMeBn(NOTA-AET))-Pro-Pro-Thr-Gln-Phe-Cys]-OH] | – | IC50 (Human recombinant FAP [3]; pIC50 Category (activity), Recombinant human FAP): < 10 nM; tissue uptake at 0.25 h (in vivo; blood pool surrogate (BPS)): 2.72 %ID/g; tissue uptake at 1 h (in vivo; blood pool surrogate (BPS)): 0.68 %ID/g; tissue uptake at 3 h (in vivo; blood pool surrogate (BPS)): 0.14 %ID/g; tissue uptake at 0.25 h (in vivo; kidneys): 37.3 %ID/g; tissue uptake at 1 h (in vivo; kidneys): 5.61 %ID/g; tissue uptake at 3 h (in vivo; kidneys): 0.42 %ID/g; tissue uptake at 0.25 h (in vivo; tumor): 7.48 %ID/g; tissue uptake at 1 h (in vivo; tumor): 8.9 %ID/g; tissue uptake at 3 h (in vivo; tumor): 9.53 %ID/g
< 10 | 10 to 79.4 | 10 to 79.4 | CCCC[C@H](NC(=O)CCC(=O)NCCCOCCOCCOCCCNC(=O)[C@H](CCC(=O)O)NC(=O)C(CNCCN)CNCCN)C(=O)N[C@H]1CSCc2cccc(c2)CSC[C@@H](C(=O)O)NC(=O)[C@H](Cc2ccccc2)NC(=O)[C@H](CCC(=O)O)NC(=O)[C@H]([C@@H](C)O)NC(=O)[C@@H]2CCCN2C(=O)[C@@H]2CCCN2C1=O [3BP-4222, N4Ac-Glu-Ttds-Nle-[Cys-(3MeBn)-Pro-Pro-Thr-Glu-Phe-Cys]-OH] ({X18-Suc}-[Nle]CPPTEFC-OH; linker 2-8 via mXylylene) | – | –
< 10 | < 10 | – | CCCCCC(=O)N[C@H]1CSCc2cc(CSCCNC(=O)CN3CCN(CC(=O)O)CCN(CC(=O)O)CCN(CC(=O)O)CC3)cc(c2)CSC[C@@H](C(=O)N[C@@H](CO)C(=O)O)NC(=O)[C@H](Cc2ccccc2)NC(=O)[C@H](CCC(N)=O)NC(=O)[C@H]([C@@H](C)O)NC(=O)[C@@H]2CCCN2C(=O)[C@@H]2CCCN2C1=O [3BP-3658, Hex-[Cys(tMeBn(DOTA-AET))-Pro-Pro-Thr-Gln-Phe-Cys]-Ser-OH] (Hexanoyl-CPPTQFCS-OH; linker 1-7 via TBMB(SCH2CH2NH-DOTA)) | < 10 | –
< 10 | < 10 | < 10 | CCCCC(=O)N[C@H]1CSCc2cc(CSCCNC(=O)CN3CCN(CC(=O)O)CCN(CC(=O)O)CCN(CC(=O)O)CC3)cc(c2)CSC[C@@H](C(=O)O)NC(=O)[C@H](Cc2ccccc2)NC(=O)[C@H](CCC(N)=O)NC(=O)[C@H]([C@@H](C)O)NC(=O)[C@@H]2CCCN2C(=O)[C@@H]2CCCN2C1=O [3BP-3910, Pent-[Cys(tMeBn(DOTA-AET))-Pro-Pro-Thr-Gln-Phe-Cys]-OH] | – | pKD Category (Human recombinant FAP [1]; Biacore assay): A (Category A stands for pKD values >8.0)

Compound | Kd (Human recombinant FAP [1]) [nM] | IC50 [2] [nM] | IC50 (Human recombinant FAP [3]; [4]) [nM] | IC50 (Human recombinant FAP [3]; [5]) [nM] | other results
CCCCCS(=O)(=O)N[C@H]1CSCc2cc(cc(CN3CCN(C(=O)CN4CCN(CC(=O)O)CCN(CC(=O)O)CCN(CC(=O)O)CC4)CC3)c2)CSC[C@@H](C(=O)N[C@@H](CC(=O)O)C(N)=O)NC(=O)[C@H](Cc2ccccc2)NC(=O)[C@H](CCC(N)=O)NC(=O)[C@H]([C@@H](C)O)NC(=O)[C@@H]2CCCN2C(=O)[C@@H]2CCCN2C1=O [3BP-3692, Pentyl-SO2-[Cys(tMeBn(DOTA-PP))-Pro-Pro-Thr-Gln-Phe-Cys]-Asp-NH2] (Pentanesulfonyl-CPPTQFCD-NH2; linker 1-7 via X13) | < 10 | < 10 | – | < 10 | –
